Source: US10077261B2, “Imidazolin-5-one derivative useful as FASN inhibitors for the treatment of cancer” (Janssen Pharmaceutica NV, priority 2012, dated 2018)

Assays:
[1] = target: T1, hFASN enzyme (full length) (Homo sapiens, UniProt P49327); experiment: Fatty Acid Synthase (FASN) inhibition scintillation proximity assay; format: biochemical; conditions: for inhibition at 10 µM: read-out: Human FASN % inhibition @ 10 μM, 10 μM test compound; for IC50: read-out: Human FASN pIC50 (converted)
T1 construct: 10 μL hFASN enzyme (full length, 300 ng, purified in house); made in house
How it was run: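 Proximity read-out: hydrophobic ^3H-palmitate formed from ^3H-acetyl-CoA and malonyl-CoA binds streptavidin imaging beads, imaged at 610±20 nm at least 24 h after stopping. Enzyme was in-house purified full-length hFASN, 300 ng, in pH 7.5 phosphate/DTT buffer; compound series 30 μM down to 0.01 μM, normalized to controls, 4-parameter fit.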

A2780 ovarian cells [2] = experiment: A2780 ovarian cell proliferation assay in lipid reduced medium, with palmitate (MTT); format: cell-based; conditions: Homo sapiens, A2780, 96 h; read-out: pIC50 A2780 Ovarian Cell, With Palmitate (converted)
How it was run: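 In this palmitate-supplemented format, compound dilutions (30 μM down to 0.01 μM) are added to cells in lipid-reduced serum with 25 μM palmitate, 0.2% fatty-acid-free BSA and 0.25% ethanol. After four days (96 h) MTT absorbance at 544 nm is recorded and fitted by minimum sum of squares.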

A2780 ovarian cells [3] = experiment: A2780 ovarian cell proliferation assay in lipid reduced medium, without palmitate (MTT); format: cell-based; conditions: Homo sapiens, A2780, 96 h; read-out: pIC50 A2780 Ovarian Cell, Without Palmitate (converted)
[4] = tested on: LNCaP-Vancouver prostate cells; experiment: In vitro LNCaP Vancouver prostate cell proliferation assay in lipid reduced medium; format: cell-based; conditions: read-out: pIC50 LNCaP_Vancouver prostate cell (converted)
[5] = tested on: PC-3M-Luc-C6 prostate cells; experiment: In vitro PC-3M-Luc-C6 prostate cell proliferation assay in lipid reduced medium; format: cell-based; conditions: 96 h, read-out: pIC50 PC-3M-Luc-C6 prostate cell (converted)
[6] = target: Fatty Acid Synthase Keto-reductase Domain (FASN KR) (Homo sapiens, UniProt P49327); experiment: Fatty Acid Synthase keto-reductase domain (FASN KR) inhibition, NADPH oxidation at 340 nm
Fatty Acid Synthase Keto-reductase Domain (FASN KR), sequence (P49327 whole entry, the tested form may be a part): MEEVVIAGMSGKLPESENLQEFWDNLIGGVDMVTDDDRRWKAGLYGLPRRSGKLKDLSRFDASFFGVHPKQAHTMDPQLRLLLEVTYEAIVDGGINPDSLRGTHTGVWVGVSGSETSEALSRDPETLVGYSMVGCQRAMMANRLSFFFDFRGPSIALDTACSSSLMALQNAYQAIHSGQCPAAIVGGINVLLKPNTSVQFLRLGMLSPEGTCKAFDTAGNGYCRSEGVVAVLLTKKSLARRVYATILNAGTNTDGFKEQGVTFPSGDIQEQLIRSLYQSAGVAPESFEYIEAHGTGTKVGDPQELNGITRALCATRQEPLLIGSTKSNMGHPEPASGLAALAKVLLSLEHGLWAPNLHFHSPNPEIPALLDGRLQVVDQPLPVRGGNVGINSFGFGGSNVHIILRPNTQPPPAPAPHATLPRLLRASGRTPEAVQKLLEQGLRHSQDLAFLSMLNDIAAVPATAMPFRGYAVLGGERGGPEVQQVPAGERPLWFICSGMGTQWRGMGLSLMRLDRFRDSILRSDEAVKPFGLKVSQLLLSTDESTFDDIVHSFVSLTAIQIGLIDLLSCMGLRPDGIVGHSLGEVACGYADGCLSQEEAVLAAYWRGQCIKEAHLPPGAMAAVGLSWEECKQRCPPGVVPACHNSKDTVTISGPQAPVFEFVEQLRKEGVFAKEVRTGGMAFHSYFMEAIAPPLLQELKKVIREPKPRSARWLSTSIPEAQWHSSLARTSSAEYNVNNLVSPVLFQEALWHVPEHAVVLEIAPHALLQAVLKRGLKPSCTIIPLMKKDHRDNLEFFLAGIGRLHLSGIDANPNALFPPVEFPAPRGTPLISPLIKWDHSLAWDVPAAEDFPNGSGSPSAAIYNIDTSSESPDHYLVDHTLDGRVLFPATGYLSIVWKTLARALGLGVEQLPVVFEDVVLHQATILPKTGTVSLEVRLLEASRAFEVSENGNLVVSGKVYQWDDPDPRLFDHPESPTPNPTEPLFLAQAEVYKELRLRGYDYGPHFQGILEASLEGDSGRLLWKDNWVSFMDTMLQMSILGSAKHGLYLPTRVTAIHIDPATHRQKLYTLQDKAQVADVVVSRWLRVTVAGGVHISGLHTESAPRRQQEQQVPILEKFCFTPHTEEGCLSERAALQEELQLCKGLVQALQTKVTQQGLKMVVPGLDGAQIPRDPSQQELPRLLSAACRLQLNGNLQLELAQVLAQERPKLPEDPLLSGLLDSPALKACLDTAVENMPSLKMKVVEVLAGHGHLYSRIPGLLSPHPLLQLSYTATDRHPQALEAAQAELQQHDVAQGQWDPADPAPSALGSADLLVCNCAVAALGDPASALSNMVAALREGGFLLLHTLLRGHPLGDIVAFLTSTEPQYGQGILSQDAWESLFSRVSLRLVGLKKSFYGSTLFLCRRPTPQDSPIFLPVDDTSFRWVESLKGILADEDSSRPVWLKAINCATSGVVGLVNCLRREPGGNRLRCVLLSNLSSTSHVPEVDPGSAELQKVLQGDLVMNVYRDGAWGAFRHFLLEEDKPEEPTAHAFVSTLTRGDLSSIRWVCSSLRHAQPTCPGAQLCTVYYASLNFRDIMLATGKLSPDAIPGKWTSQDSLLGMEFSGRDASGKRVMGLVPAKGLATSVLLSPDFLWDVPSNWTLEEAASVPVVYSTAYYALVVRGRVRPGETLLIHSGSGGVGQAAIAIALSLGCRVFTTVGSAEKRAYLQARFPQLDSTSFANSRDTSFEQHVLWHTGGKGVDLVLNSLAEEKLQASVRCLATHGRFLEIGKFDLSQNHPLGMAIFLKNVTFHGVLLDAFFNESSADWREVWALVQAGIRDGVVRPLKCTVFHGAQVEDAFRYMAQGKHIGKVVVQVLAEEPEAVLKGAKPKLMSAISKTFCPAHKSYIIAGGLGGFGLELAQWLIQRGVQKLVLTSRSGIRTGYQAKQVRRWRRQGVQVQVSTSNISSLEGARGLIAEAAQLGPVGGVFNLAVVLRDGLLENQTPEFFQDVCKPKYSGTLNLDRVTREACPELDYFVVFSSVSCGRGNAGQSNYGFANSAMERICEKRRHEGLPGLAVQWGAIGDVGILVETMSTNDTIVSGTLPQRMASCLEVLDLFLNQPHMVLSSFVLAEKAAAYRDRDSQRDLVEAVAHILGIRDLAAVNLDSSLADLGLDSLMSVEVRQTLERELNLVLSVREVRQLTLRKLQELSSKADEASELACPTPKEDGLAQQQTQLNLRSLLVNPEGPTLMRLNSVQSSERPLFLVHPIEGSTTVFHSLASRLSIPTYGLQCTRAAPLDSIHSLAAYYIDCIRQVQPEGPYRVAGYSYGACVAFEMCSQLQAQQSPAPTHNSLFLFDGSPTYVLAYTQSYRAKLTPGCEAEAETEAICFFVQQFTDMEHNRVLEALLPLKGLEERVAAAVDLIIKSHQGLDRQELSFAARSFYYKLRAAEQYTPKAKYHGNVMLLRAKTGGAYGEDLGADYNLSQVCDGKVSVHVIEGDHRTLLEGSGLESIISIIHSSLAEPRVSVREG
Protocol: After 20 minutes incubation at room temperature the plate was measured again (T2).
The decrease in absorbance was calculated as (Absorbance before incubation T1)−(Absorbance following incubation T2).
A plot of Controlmin versus test compound concentration was fitted to a 4-parameter logistic curve using a non-linear least squares regression method.

T1 sequence (P49327 whole entry): as the sequence (P49327 whole entry, the tested form may be a part) above

SMILES | inhibition at 10 µM [1] [%] | IC50 [1] [nM] | IC50 (A2780 ovarian cells [2]) [µM] | IC50 (A2780 ovarian cells [3]) [nM] | IC50 [4] [nM] | IC50 [5] [nM] | IC50 [6] [nM]
O=C(C1CC1)N1CC[C@@H](CN2C(=O)C3(CC3)N=C2c2ccc(-c3ccc4cc(F)ccc4c3)cc2F)C1 [compound 259, (R)-6-((1-(cyclopropanecarbonyl)pyrrolidin-3-yl)methyl)-5-(2-fluoro-4-(6-fluoronaphthalen-2-yl)phenyl)-4,6-diazaspiro[2.4]hept-4-en-7-one] | 95 | 25.1 | > 10 | 105 | 447 | 67.6 | 29.5
O=C(C1CC1)N1CC[C@@H](CN2C(=O)C3(CC3)N=C2c2ccc(-c3ccc4cccc(F)c4c3)cc2F)C1 [compound 260, (R)-6-((1-(cyclopropanecarbonyl)pyrrolidin-3-yl)methyl)-5-(2-fluoro-4-(8-fluoronaphthalen-2-yl)phenyl)-4,6-diazaspiro[2.4]hept-4-en-7-one] | 101 | 16.2 | > 10 | ~70.8 | 85.1 | 37.2 | 37.2
O=C(C1CC1)N1CC[C@@H](CN2C(=O)C3(CC3)N=C2c2ccc(-c3c[nH]c4ccccc34)cc2F)C1 [compound 261, (R)-6-((1-(cyclopropanecarbonyl)pyrrolidin-3-yl)methyl)-5-(2-fluoro-4-(1H-indol-3-yl)phenyl)-4,6-diazaspiro[2.4]hept-4-en-7-one] | 98 | 55 | > 10 | 6.61 | ~102 | 21.4 | 89.1
Cn1ncc2cc(-c3ccc(C4=NC5(CC5)C(=O)N4CC4CN(C(=O)C5(O)CC5)C4)c(Cl)c3)ccc21 [compound 264, 5-(2-chloro-4-(1-methyl-1H-indazol-5-yl)phenyl)-6-((1-(1-hydroxycyclopropanecarbonyl)azetidin-3-yl)methyl)-4,6-diazaspiro[2.4]hept-4-en-7-one] | 108 | 37.2 | > 10 | 74.1 | 501 | 44.7 | 158
Cc1cc(-c2ccc3c(cnn3C)c2)ccc1C1=NC2(CC2)C(=O)N1C[C@@H]1CCN(C(=O)C2(C)CC2)C1 [compound 265, (R)-5-(2-methyl-4-(1-methyl-1H-indazol-5-yl)phenyl)-6-((1-(1-methylcyclopropanecarbonyl)pyrrolidin-3-yl)methyl)-4,6-diazaspiro[2.4]hept-4-en-7-one] | 103 | 45.7 | > 10 | ~2.88 | 13.8 | ~7.08 | ~53.7
Cc1cc(-c2ccc3cc(F)ccc3c2)ccc1C1=NC2(CC2)C(=O)N1C[C@@H]1CCN(C(=O)C2(C)CC2)C1 [compound 266, (R)-5-(4-(6-fluoronaaphthalen-2-yl)-2-methylphenyl)-6-((1-(1-methylcyclopropanecarbonyl)pyrrolidin-3-yl)methyl)-4,6-diazaspiro[2.4]hept-4-en-7-one] | 102 | 33.9 | 1.35 | ~2.19 | 15.1 | 4.68 | 46.8
Cc1cc(-c2ccc(-c3cnn(C)c3)cc2)ccc1C1=NC2(CC2)C(=O)N1C[C@@H]1CCN(C(=O)C2(C)CC2)C1 [compound 267] | 97 | 26.3 | > 10 | 1.7 | 12.3 | ~3.09 | 51.3
N#Cc1ccc2nc(-c3ccc(C4=NC5(CC5)C(=O)N4CC4CN(C(=O)C5CC5)C4)c(F)c3)sc2c1 [compound 268, 2-(4-(6-((1-(cyclopropanecarbonyl)azetidin-3-yl)methyl)-7-oxo-4,6-diazaspiro[2.4]hept-4-en-5-yl)-3-fluorophenyl)benzo[d]thiazole-6-carbonitrile] | 104 | 55 | > 10 | ~44.7 | 288 | 58.9 | 69.2
Cc1cc(-c2ccc3cc(C#N)ccc3c2)ccc1C1=NC2(CC2)C(=O)N1CC1CN(C(=O)C2(C)CC2)C1 [compound 269, 6-(3-methyl-4-(6-((1-(1-methylcyclopropanecarbbonyl)azetidin-3-yl)methyl)-7-oxo-4,6-diazaspiro[2.4]hept-4-en-5-yl)phenyl)-2-naphthonitrile] | 102 | 22.4 | 4.27 | ~3.72 | 28.2 | ~8.32 | 66.1
Cc1ccc2nc(-c3ccc(C4=NC5(CC5)C(=O)N4CC4CN(C(=O)C5CC5)C4)c(F)c3)sc2c1 [compound 270, 6-((1-(cyclopropanecarbonyl)azetidin-3-yl)methyl)-5-(2-fluoro-4-(6-methylbenzo[d]thiazol-2-yl)phenyl)-4,6-diazaspiro[2.4]hept-4-en-7-one] | 102 | 35.5 | ~5.5 | ~27.5 | 195 | 34.7 | 166
O=C(C1CC1)N1CC(CN2C(=O)C3(CC3)N=C2c2ccc(-c3nc4ccc(F)cc4s3)cc2F)C1 [compound 271, 6-((1-(cyclopropanecarbonyl)azetidin-3-yl)methyl)-5-(2-fluoro-4-(6-fluorobenzo[d]thiazol-2-yl)phenyl)-4,6-diazaspiro[2.4]hept-4-en-7-one] | 104 | 56.2 | > 10 | ~74.1 | 417 | 97.7 | 166
Cc1cc(-c2ccc3cc(C#N)ccc3c2)ccc1C1=NC2(CC2)C(=O)N1CC1CN(C(=O)C2(O)CC2)C1 [compound 272, 6-(4-(6-((1-(1-hydroxycyclopropanecarbonyl)azetidin-3-yl)methyl)-7-oxo-4,6-diazaspiro[2.4]hept-4-en-5-yl)-3-methylphenyl)-2-naphthonitrile] | 105 | 18.6 | > 10 | ~7.24 | 49 | 10.7 | ~38.9
Cc1cc(-c2ccc3cc(C#N)ccc3c2)ccc1C1=NC2(CC2)C(=O)N1CC1CN(C(=O)C2(F)CC2)C1 [compound 273, 6-(4-(6-((1-(1-fluorocyclopropanecarbonyl)azetidin-3-yl)methyl)-7-oxo-4,6-diazaspiro[2.4]hept-4-en-5-yl)-3-methylphenyl)-2-naphthonitrile] | 102 | 42.7 | 7.94 | ~20.9 | 355 | 67.6 | 145
O=C(C1CC1)N1CC(CN2C(=O)C3(CC3)N=C2c2ccc(-c3nc4ccc(Cl)cc4s3)cc2F)C1 [compound 274, 5-(4-(6-chlorobenzo[d]thiazol-2-yl)-2-fluorophenyl)-6-((1-(cyclopropanecarbonyl)azetidin-3-yl)methyl)-4,6-diazaspiro[2.4]hept-4-en-7-one] | 101 | 50.1 | 7.24 | ~24 | 339 | 46.8 | 100
Cc1cc(-c2ccc3oc(C)c(C)c3c2)ccc1C1=NC2(CC2)C(=O)N1C[C@@H]1CCN(C(=O)C2CC2)C1 [compound 282, (R)-6-((1-(cyclopropanecarbonyl)pyrrolidin-3-yl)methyl)-5-(4-(2,3-dimethylbenzofuran-5-yl)-2-methylphenyl)-4,6-diazaspiro[2.4]hept-4-en-7-one] | 106 | 87.1 | > 10 | ~2090 | ~2140 | ~1700 | 224
Cc1cc(-c2ccc3[nH]ccc3c2)ccc1C1=NC2(CC2)C(=O)N1C[C@@H]1CCN(C(=O)C2CC2)C1 [compound 284, (R)-5-(4-(1H-indol-5-yl)-2-methylphenyl)-6-((1-(cyclopropanecarbonyl)pyrrolidin-3-yl)methyl)-4,6-diazaspiro[2.4]hept-4-en-7-one] | 106 | 25.7 | > 10 | ~23.4 | 38 | 18.2 | 30.9
Cc1cc(-c2ccc3[nH]ncc3c2)ccc1C1=NC2(CC2)C(=O)N1C[C@@H]1CCN(C(=O)C2CC2)C1 [compound 286, (R)-5-(4-(1H-indazol-5-yl)-2-methylphenyl)-6-((1-(cyclopropanecarbonyl)pyrrolidin-3-yl)methyl)-4,6-diazaspiro[2.4]hept-4-en-7-one] | 103 | 43.7 | > 10 | ~21.4 | 123 | 25.1 | 60.3
Cc1cc(-c2ccc3sccc3c2)ccc1C1=NC2(CC2)C(=O)N1CC1CN(C(=O)C2CC2)C1 [compound 288] | 107 | 26.9 | > 10 | ~107 | 537 | 77.6 | 53.7
